Source: ChEMBL document CHEMBL1201862, “PubChem BioAssay data set” (2004)
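Briefly, cells in 96-well plates were exposed to five compound concentrations for 48 h, and endpoints were estimated by linear interpolation. GI50 is the concentration that inhibits growth by half.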 Activity calls are given as the source filed them. Rule as the data show it: active = GI50 up to about 1.1 µM and inactive = higher.

Key:
Assay in all cases: NCI tumour cell line growth inhibition, 48 h
[1] = tested on: SF-295
[2] = tested on: K562
[3] = tested on: NCI-H226
[4] = tested on: U-251
[5] = tested on: SW-620
[6] = tested on: MDA-MB-435
[7] = tested on: CCRF-CEM
[8] = tested on: UO-31
[9] = tested on: SF-268
[10] = tested on: Malme-3M
[11] = tested on: HCT-116
[12] = tested on: SK-MEL-5
[13] = tested on: HOP-62
[14] = tested on: RXF 393
[15] = tested on: M14
[16] = tested on: LOX IMVI
[17] = tested on: NCI-H522
[18] = tested on: Hs-578T
[19] = tested on: COLO 205
[20] = tested on: SNB-75
[21] = tested on: ACHN
[22] = tested on: HOP-92
[23] = tested on: UACC-62
[24] = tested on: SNB-19
[25] = tested on: 786-0
[26] = tested on: MOLT-4
[27] = tested on: HT-29
[28] = tested on: OVCAR-5
[29] = tested on: SK-MEL-28
[30] = tested on: KM12
[31] = tested on: RPMI-8226
[32] = tested on: EKVX
[33] = tested on: T47D
[34] = tested on: IGROV-1
[35] = tested on: A498
[36] = tested on: MDA-MB-231
[37] = tested on: MDA-N
[38] = tested on: CAKI-1
[39] = tested on: OVCAR-8
[40] = tested on: NCI/ADR-RES
[41] = tested on: OVCAR-3
[42] = tested on: PC-3
[43] = tested on: SK-OV-3
[44] = tested on: DU-145
[45] = tested on: MCF7
[46] = tested on: BT-549
[47] = tested on: SF-539
[48] = tested on: NCI-H23
[49] = tested on: TK-10
[50] = tested on: HCT-15
[51] = tested on: SN12C
[52] = tested on: SK-MEL-2
[53] = tested on: NCI-H460
[54] = tested on: OVCAR-4
[55] = tested on: HCC 2998
[56] = tested on: A549
[57] = tested on: UACC-257
[58] = tested on: HL-60

## O=c1[nH]/c(=C/c2ccc3c(c2)OCO3)c(=O)[nH]/c1=C/c1ccc2c(c1)OCO2
[1]
  GI50: > 10 µM (inactive)
[2]
  GI50: > 10 µM (inactive)
[3]
  GI50: > 10 µM (inactive)
[4]
  GI50: > 10 µM (inactive)
[5]
  GI50: > 10 µM (inactive)
[6]
  GI50: > 10 µM (inactive)
[7]
  GI50: > 10 µM (inactive)
[8]
  GI50: > 10 µM (inactive)
[9]
  GI50: > 10 µM (inactive)
[10]
  GI50: > 10 µM (inactive)
[11]
  GI50: > 10 µM (inactive)
[12]
  GI50: > 10 µM (inactive)
[13]
  GI50: > 10 µM (inactive)
[14]
  GI50: > 10 µM (inactive)
[15]
  GI50: > 10 µM (inactive)
[16]
  GI50: > 10 µM (inactive)
[17]
  GI50: > 10 µM (inactive)
[18]
  GI50: > 10 µM (inactive)
[19]
  GI50: > 10 µM (inactive)
[20]
  GI50: > 10 µM (inactive)
[21]
  GI50: > 10 µM (inactive)
[22]
  GI50: > 10 µM (inactive)
[23]
  GI50: > 10 µM (inactive)
[24]
  GI50: > 10 µM (inactive)
[25]
  GI50: > 10 µM (inactive)
[26]
  GI50: > 10 µM (inactive)
[27]
  GI50: > 10 µM (inactive)
[28]
  GI50: > 10 µM (inactive)
[29]
  GI50: 8.89 µM (inactive)
[30]
  GI50: > 10 µM (inactive)
[31]
  GI50: > 10 µM (inactive)
[32]
  GI50: > 10 µM (inactive)
[33]
  GI50: > 10 µM (inactive)
[34]
  GI50: > 10 µM (inactive)
[35]
  GI50: > 10 µM (inactive)
[36]
  GI50: > 10 µM (inactive)
[37]
  GI50: > 10 µM (inactive)
[38]
  GI50: > 10 µM (inactive)
[39]
  GI50: > 10 µM (inactive)
[40]
  GI50: > 10 µM (inactive)
[41]
  GI50: > 10 µM (inactive)
[42]
  GI50: > 10 µM (inactive)
[43]
  GI50: > 10 µM (inactive)
[44]
  GI50: > 10 µM (inactive)
[45]
  GI50: > 10 µM (inactive)
[46]
  GI50: > 10 µM (inactive)
[47]
  GI50: > 10 µM (inactive)
[48]
  GI50: > 10 µM (inactive)
[49]
  GI50: > 10 µM (inactive)
[50]
  GI50: > 10 µM
[51]
  GI50: > 10 µM (inactive)
[52]
  GI50: > 10 µM (inactive)
[53]
  GI50: > 10 µM (inactive)
[54]
  GI50: > 10 µM (inactive)
[55]
  GI50: > 10 µM (inactive)
[56]
  GI50: > 10 µM (inactive)
[57]
  GI50: > 10 µM (inactive)

## N=C(N)NC(=N)Nc1ccccc1.Sc1nc2ccccc2s1
[1]
  GI50: > 100 µM (inactive)
[2]
  GI50: > 100 µM (inactive)
[3]
  GI50: > 100 µM (inactive)
[4]
  GI50: > 100 µM (inactive)
[5]
  GI50: > 100 µM (inactive)
[6]
  GI50: > 100 µM (inactive)
[7]
  GI50: > 100 µM (inactive)
[8]
  GI50: > 100 µM (inactive)
[9]
  GI50: > 100 µM (inactive)
[10]
  GI50: > 100 µM (inactive)
[11]
  GI50: > 100 µM (inactive)
[12]
  GI50: > 100 µM (inactive)
[13]
  GI50: > 100 µM (inactive)
[14]
  GI50: > 100 µM (inactive)
[15]
  GI50: > 100 µM (inactive)
[16]
  GI50: > 100 µM (inactive)
[17]
  GI50: 53.8 µM (inactive)
[18]
  GI50: > 100 µM (inactive)
[19]
  GI50: > 100 µM (inactive)
[20]
  GI50: > 100 µM (inactive)
[21]
  GI50: > 100 µM (inactive)
[23]
  GI50: > 100 µM (inactive)
[24]
  GI50: > 100 µM (inactive)
[25]
  GI50: > 100 µM (inactive)
[27]
  GI50: > 100 µM (inactive)
[28]
  GI50: > 100 µM (inactive)
[29]
  GI50: > 100 µM (inactive)
[30]
  GI50: > 100 µM (inactive)
[32]
  GI50: > 100 µM (inactive)
[33]
  GI50: 24.2 µM (inactive)
[34]
  GI50: 70.5 µM (inactive)
[35]
  GI50: > 100 µM (inactive)
[36]
  GI50: > 100 µM (inactive)
[37]
  GI50: > 100 µM (inactive)
[38]
  GI50: > 100 µM (inactive)
[39]
  GI50: > 100 µM (inactive)
[40]
  GI50: > 100 µM (inactive)
[41]
  GI50: 0.532 µM (active)
[42]
  GI50: > 100 µM (inactive)
[43]
  GI50: > 100 µM (inactive)
[44]
  GI50: > 100 µM (inactive)
[45]
  GI50: > 100 µM (inactive)
[46]
  GI50: > 100 µM (inactive)
[47]
  GI50: > 100 µM (inactive)
[48]
  GI50: > 100 µM (inactive)
[49]
  GI50: > 100 µM (inactive)
[50]
  GI50: > 100 µM
[58]
  GI50: > 100 µM (inactive)
[51]
  GI50: > 100 µM (inactive)
[52]
  GI50: > 100 µM (inactive)
[53]
  GI50: > 100 µM (inactive)
[54]
  GI50: > 100 µM (inactive)
[55]
  GI50: > 100 µM (inactive)
[56]
  GI50: > 100 µM (inactive)
[57]
  GI50: > 100 µM (inactive)
